Experiments:
[1] = molecular target: T1, Phospho-DNA-PK in FaDu Cells (Homo sapiens, UniProt P78527); test: Effect of compounds on phospho-DNA-PK in FaDu cells (MesoScale sandwich immunoassay); format: cell-based; conditions: 1 hour pre-incubation, 1 μg/ml Neocarzinostatin 2 hours, averaged values, read-out: MSD FaDu IC50
T1 construct: host or cells: FaDu
Procedure: Effect of Compounds on Phospho-DNA-PK in FaDu Cells
All compounds tested were dissolved in DMSO and further dilutions were made in culture medium. Final DMSO concentration was 0.3% (v/v). The human FaDu cells (ATCC) were cultured in MEM medium supplemented with Glutamax and 10% fetal calf serum (PAA). Cells were routinely maintained at densities of 0.2×10^6 cells per ml at 37° C. in a humidified 5% CO2, 95% air atmosphere. Cells were passaged twice a week, splitting back to obtain the low density. Cells were seeded in 96 well plates (Corning 3904) at 1×10^6 cells per ml media in a volume of 50 μl per well. Seeded cells were incubated at 37° C. in a humidified 5% CO2, 95% air atmosphere for 24 hours. Compounds were added (25 μl) to the cells and pre-incubated for 1 hour. 1 μg/ml DNA-damaging agent Neocarzinostatin (NCS) was added (25 μl) to a final volume of 100 μl and incubated for 2 hours at 37° C. in a humidified 5% CO2, 95% air atmosphere. After this period of time plates were removed from the incubator and the 100 μl dilutions were removed from the wells gently, prior to the addition of 75 μl cold RIPA lysis buffer with protease and phosphatase inhibitors to achieve the cells lysis, followed by shaking on a plate shaker at 4° C. for 30 minutes. At the end of this incubation, lysate was assessed for phospho-DNA-PK levels by sandwich immune-assay carried out in anti-mouse antibody coated MesoScale plates. […] Signal obtained in the wells containing blank samples was subtracted from all other wells and IC50 values were determined by fitting a sigmoidal curve to % inhibition of control versus Logo compound concentration.

[2] = molecular target: DNA-PK kinase (Homo sapiens, UniProt P78527); test: Inhibition of DNA-PK kinase activity (ADP-Glo); format: biochemical; conditions: averaged values over all measurements on all batches; 150 μM ATP, 1 hour at 25° C.
Procedure: Inhibition of DNA-PK Kinase Activity Assay buffer was 50 mM Hepes pH 7.5 containing 0.1 mg/ml BSA (albumin from bovine serum), 50 μM DTT (dithiothreitol), 20 mM MgCl2 and 10 μg/ml calf thymus DNA (activation buffer). Kinase reaction was carried out in OptiPlate 384 plates (PerkinElmer 6007299). All compounds tested were dissolved in dimethyl sulfoxide (DMSO) and further dilutions were made in assay buffer. Final DMSO concentration was 1% (v/v). Pre-incubation consisted of compound (1% DMSO in control and blank wells) and 24 ng/well DNA-PK kinase to allow the compounds to bind the enzyme (with buffer in the blank wells) for 15 minutes; after this time 150 μM Adenosine-5′-triphosphate (ATP) and 0.2 μg/μl DNA-PK substrate were added to commence the kinase reaction. Incubations were carried out for 1 hour at 25° C. Kinase activity was determined by using ADP-Glo™ reagent from Promega according to the manufacturer's instructions. The light generated was measured using a luminometer (EnVision, PerkinElmer). Signal obtained in the wells containing blank samples was subtracted from all other wells and IC50 values were determined by fitting a sigmoidal curve to % inhibition of control versus Log10 compound concentration.

IC50 [1] [nM] | IC50 [2] [nM] | SMILES
182 | 3 | Brc1cnc2cc(N3CCOCC3)nc(O[C@H]3CC[C@@H](n4ccnc4)CC3)c2c1 [Example 54]
238 | 12 | Cn1ncnc1[C@H]1CC[C@@H](Oc2nc(N3CCOCC3)cc3ncccc23)CC1 [Example 56]
113 | 1 | Cc1nnc([C@H]2CC[C@@H](Oc3nc(N4CCOCC4)cc4ncccc34)CC2)[nH]1 [Example 70]
62 | 2 | c1cnc2cc(N3CCOCC3)nc(O[C@H]3CC[C@@H](c4nnc[nH]4)CC3)c2c1 [Example 71]
218 | 11 | Cn1cnc([C@H]2CC[C@@H](Oc3nc(N4CCOCC4)cc4ncccc34)CC2)n1 [Example 72]
759 | 3 | c1cnc2cc(N3CCOCC3)nc(O[C@H]3CC[C@@H](c4nnn[nH]4)CC3)c2c1 [Example 74]
57 | 5 | c1cnc2cc(N3CCOCC3)nc(O[C@H]3CC[C@@H](c4ncc[nH]4)CC3)c2c1 [Example 75]
143 | 11 | Fc1c[nH]c([C@H]2CC[C@@H](Oc3nc(N4CCOCC4)cc4ncccc34)CC2)n1 [Example 76]
104 | 6 | c1cnc2cc(N3CCOCC3)nc(O[C@H]3CC[C@@H](n4ccnc4)CC3)c2c1 [Example 77]
195 | 4 | Fc1cnn([C@H]2CC[C@@H](Oc3nc(N4CCOCC4)cc4ncccc34)CC2)c1 [Example 78]
373 | 6 | c1cnc2cc(N3CCOCC3)nc(O[C@H]3CC[C@@H](n4ccnn4)CC3)c2c1 [Example 79]
240 | 7 | c1cnc2cc(N3CCOCC3)nc(O[C@H]3CC[C@@H](n4cncn4)CC3)c2c1 [Example 80]
507 | 10 | c1cnc2cc(N3CCOCC3)nc(O[C@H]3CC[C@@H](n4nccn4)CC3)c2c1 [Example 81]
1890 | 141 | CS(=O)(=O)[C@H]1CC[C@@H](Oc2nc(N3CCOCC3)cc3ncccc23)CC1 [Example 82]
1160 | 51 | c1cnc2cc(N3CCOCC3)nc(O[C@H]3C[C@@H](c4ncc[nH]4)C3)c2c1 [Example 87]
13800 | 203 | c1cnc(N2CCC(Oc3nc(N4CCOCC4)cc4ncccc34)CC2)nc1 [Example 127]
1800 | 110 | CS(=O)(=O)N1CCC(Oc2nc(N3CCOCC3)cc3ncccc23)CC1 [Example 143]

The remaining lines, values behind:

SMILES | IC50 [1] [nM] | IC50 [2] [nM]
c1cnc(NC2CCCCN(c3nc(N4CCOCC4)cc4ncccc34)C2)nc1 (centres unmarked) [Example 20] | 8870 | 159
c1cnc(NCCC2CN(c3nc(N4CCOCC4)cc4ncccc34)C2)nc1 [Example 21] | 7960 | 164
c1cnc(N2CCC3(CCN(c4nc(N5CCOCC5)cc5ncccc45)C3)C2)nc1 (centres unmarked) [Example 22] | 1550 | 198
c1cnc(NCc2cnn(-c3nc(N4CCOCC4)cc4ncccc34)c2)nc1 [Example 24] | 9350 | 213
NC(=O)[C@H]1CC[C@H](COc2nc(N3CCOCC3)cc3ncccc23)CC1 [Example 57] | 2460 | 120
c1cnc2cc(N3CCOCC3)nc(N[C@H]3CC[C@@H](c4nnc[nH]4)CC3)c2c1 [Example 58] | 1590 | 27
[2H]C1([2H])OC([2H])([2H])C([2H])([2H])N(c2cc3ncccc3c(O[C@H]3CC[C@@H](c4nc[nH]n4)CC3)n2)C1([2H])[2H] [Example 65] | 210 | 2
C[C@@H]1CN(c2cc3ncccc3c(O[C@H]3CC[C@@H](c4nc[nH]n4)CC3)n2)CCO1 [Example 66] | 265 | 3
C[C@H]1COCCN1c1cc2ncccc2c(O[C@H]2CC[C@@H](c3nc[nH]n3)CC2)n1 [Example 67] | 891 | 32
C[C@@H]1COCCN1c1cc2ncccc2c(O[C@H]2CC[C@@H](c3nc[nH]n3)CC2)n1 [Example 69] | 5050 | 261
c1cnc2cc(N3CCOCC3)nc(OC[C@H]3CC[C@@H](c4ncn[nH]4)CC3)c2c1 [Example 73] | 1730 | 55
CC(=O)N1CCN(c2nc(N3CCOCC3)cc3ncccc23)CC1 [Example 84] | 3840 | 188
NC(=O)c1ccnc(NCC2CCN(c3nc(N4CCOCC4)cc4ncccc34)CC2)n1 [Example 99] | 724 | 15
COC(=O)c1cc(N)nc(NCC2CCN(c3nc(N4CCOCC4)cc4ncccc34)CC2)n1 [Example 100] | 2360 | 32
Cc1cc(C(N)=O)nc(NCC2CCN(c3nc(N4CCOCC4)cc4ncccc34)CC2)n1 [Example 101] | 2130 | 32
Cc1cnc(NCC2CCN(c3nc(N4CCOCC4)cc4ncccc34)CC2)nc1 [Example 102] | 905 | 39
N#Cc1cnc(NCC2CCN(c3nc(N4CCOCC4)cc4ncccc34)CC2)nc1N [Example 103] | 3700 | 45
Fc1cnc(NCC2CCN(c3nc(N4CCOCC4)cc4ncccc34)CC2)nc1 [Example 104] | 3020 | 50
CNC(=O)c1ccnc(NCC2CCN(c3nc(N4CCOCC4)cc4ncccc34)CC2)n1 [Example 105] | 1160 | 51

SMILES | IC50 [1] [nM] | IC50 [2] [nM]
CN(C)C(=O)c1ccnc(NCC2CCN(c3nc(N4CCOCC4)cc4ncccc34)CC2)n1 [Example 106] | 11400 | 52
N#Cc1cnc(NCC2CCN(c3nc(N4CCOCC4)cc4ncccc34)CC2)nc1 [Example 107] | 2370 | 66
N#Cc1ccnc(NCC2CCN(c3nc(N4CCOCC4)cc4ncccc34)CC2)n1 [Example 108] | 3380 | 69
Cc1ccnc(NCC2CCN(c3nc(N4CCOCC4)cc4ncccc34)CC2)n1 [Example 109] | 4830 | 76
COc1ccnc(NCC2CCN(c3nc(N4CCOCC4)cc4ncccc34)CC2)n1 [Example 111] | 2140 | 88
CCOC(=O)c1cnc(NCC2CCN(c3nc(N4CCOCC4)cc4ncccc34)CC2)nc1 [Example 112] | 2030 | 112
Oc1ccnc(NCC2CCN(c3nc(N4CCOCC4)cc4ncccc34)CC2)n1 [Example 113] | 6600 | 114
c1cnc2cc(N3CCOCC3)nc(N3CCC(CNc4cnccn4)CC3)c2c1 [Example 114] | 9670 | 117
N#Cc1cccnc1NCC1CCN(c2nc(N3CCOCC3)cc3ncccc23)CC1 [Example 115] | 7990 | 120
Cc1cc(C)nc(NCC2CCN(c3nc(N4CCOCC4)cc4ncccc34)CC2)n1 [Example 117] | 1930 | 125
N#Cc1cccc(-c2ccnc(NCC3CCN(c4nc(N5CCOCC5)cc5ncccc45)CC3)n2)n1 [Example 119] | 2410 | 136
c1cnc2cc(N3CCOCC3)nc(N3CCC(CNc4ccncn4)CC3)c2c1 [Example 120] | 3180 | 140
FC(F)(F)c1cnc(NCC2CCN(c3nc(N4CCOCC4)cc4ncccc34)CC2)nc1 [Example 121] | 3520 | 143
c1ccc(NCC2CCN(c3nc(N4CCOCC4)cc4ncccc34)CC2)nc1 [Example 122] | 4360 | 185
c1cnc(N2CC(COc3nc(N4CCOCC4)cc4ncccc34)C2)nc1 [Example 128] | 1390 | 30
c1cnc(N2CCC(COc3nc(N4CCOCC4)cc4ncccc34)CC2)nc1 [Example 129] | 1310 | 44
c1cnc(NCCC2CCN(c3nc(N4CCOCC4)cc4ncccc34)CC2)nc1 [Example 130] | 2530 | 48
Fc1ccnc(NCC2CCN(c3nc(N4CCOCC4)cc4ncccc34)CC2)c1 [Example 132] | 10600 | 82
c1cncc(NCC2CCN(c3nc(N4CCOCC4)cc4ncccc34)CC2)c1 [Example 133] | 11400 | 155

Reference: patent US20230063457A1, “DNA-PK INHIBITING COMPOUNDS” (Provincial Health Services Authority, priority 2019, published 2023)
